Where no end group is shown, it is not given here.
test system: CEA CTL T-Vac8; test: initial screening cytotoxicity assay, 111In release from peptide-incubated C1R-A2 cells with T-Vac8 CTL; type: cell-based, human; conditions: peptide at 1, 0.1 and 0.01 µg/ml, E:T=1.45:1, 4 hours

Compound | activation of T-Vac8 cytotoxicity (lysis of peptide-incubated targets)
CC(C)C[C@H](NC(=O)[C@H](CC(N)=O)NC(=O)[C@H](CC(C)C)NC(=O)[C@H](CC(=O)O)NC(=O)[C@H](C)NC(=O)CNC(=O)[C@H](CO)NC(=O)[C@H](CC(C)C)NC(=O)[C@@H](N)Cc1ccc(O)cc1)C(=O)O [CAP1-6D] | equal to or better than CAP1
CC[C@H](C)[C@H](NC(=O)[C@H](CC(N)=O)NC(=O)[C@H](C)NC(=O)CNC(=O)[C@H](CO)NC(=O)[C@H](CC(C)C)NC(=O)[C@@H](N)Cc1ccc(O)cc1)C(=O)N[C@@H](CC(N)=O)C(=O)N[C@@H](CC(C)C)C(=O)O [CAP1-7I] | appeared to be active
YLSGACLNL [CAP1-6C] | equal to or better than CAP1
YLSGFNLNL [CAP1-5F] | provided stimulation, albeit at reduced levels compared to CAP1 itself
YLSGINLNL [CAP1-5I] | provided stimulation, albeit at reduced levels compared to CAP1 itself
YLSGSNLNL [CAP1-5S] | provided stimulation, albeit at reduced levels compared to CAP1 itself

From patent publication EP1017810B1, “AGONIST AND ANTAGONIST PEPTIDES OF CARCINOEMBRYONIC ANTIGEN (CEA)” (THE GOVERNMENT OF THE UNITED STATES OF AMERICA, as …, priority 1997, dated 2004)
